Paper PMC9571628 (Molecules, 2022)

How the values were obtained:
Ugt1a7 mRNA = assay: qRT-PCR of Ugt1a7 mRNA in liver and intestines of rats after multiple doses; assay type: in vivo
Protocol: The qRT-PCR analysis was used to measure mRNA levels of Ugt1a7 in the liver and intestines of rats. Total RNA was isolated from frozen liver and intestine samples using the TRNzol Universal as per the manufacturer’s instructions. A Bio Tek Epoch (Bio Tek Instruments, Inc., Winooski, VT, USA) was used to quantify the concentration and purity of the total RNA based on the ratio of the absorbance between 260 and 280 nm. RNA samples of 1 μg of were converted to complementary (cDNA) using the FastKing RT Kit. The real-time PCR assays were performed using a two-step amplification method according to the manufacturer’s recommendations in a SLAN-96S Real-Time PCR system (Shanghai Hongshi Medical Technology Co., Ltd. Shanghai, China). The PCR cycling conditions were as follows: 95 °C for 15 min, followed by 40 cycles of 95 °C for 10 s and 60 °C for 32 s. The sequences of primers are listed in Table 6. β-actin was used as an internal control.

[1] = Stability of QC samples in rat plasma under different storage and processing conditions; assay type: physicochemical; conditions: for Accuracy (RE%) / Mean ± SD concentration found: rat plasma, n = 6; for stability in rat plasma: autosampler for 6 h, room temperature for 4 h, three cycles of freezing and thawing (−80 °C to room temperature)
Protocol: The stability of QC samples in rat plasma was tested in six replicates at three concentration levels exposed to different storage and processing conditions: autosampler for 6 h after processing, room temperature for 4 h, −80 °C for 30 days, three freeze–thaw cycles (−80 °C to room temperature).

CYP450 = conditions: cited from earlier work
[2] = cited from earlier work
UGT1A1 = conditions: cited from earlier work
UGT1A9 = conditions: cited from earlier work
[3] = Pharmacokinetic interaction study between SOR and DAPA in rats (oral gavage, plasma by UPLC-MS/MS); conditions: for AUC(0-t) / AUC(0-inf) / CL/F / Cmax / MRT last / MRT inf / Tmax / Vd/F / half-life: n = 6; for AUC(0-inf): AUC0–∞; for CL/F: CLz/F; for MRT last: MRT0-t; for MRT inf: MRT0–∞; for Vd/F: Vz/F; for half-life: t1/2z;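 for all read-outs here: parameters derived by non-compartmental analysis of plasma concentration–time data, with analyte levels measured by UPLC-MS/MS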
Protocol: Analytes were quantified using Ultra-Performance Liquid Chromatography-Tandem Mass Spectrometry (UPLC-MS/MS) which consisted of an LC-30A ultra-performance liquid chromatography (Shimadzu, Kyoto, Japan) and Sciex Triple Quad 5500 tandem triple quadrupole mass spectrometer (AB Sciex, Framingham, MA, USA). Chromatographic separation was performed using an XSelect HSS T3 column (2.1 mm × 100 mm, 2.5 μm, Waters, Milford, MA, USA) at 40 °C by gradient elution. The mobile phase consisted of water with 0.1% formic acid and 5 mM ammonium acetate (phase A) and acetonitrile (phase B), and the gradient elution procedure was as follows: 0–0.5 min, 60–90% B; 0.5–3 min, 90% B; 3–3.1 min, 90–60% B; and 3.1–4 min, 60% B. The injection volume was 5 μL.
A volume of 25 µL plasma samples, 2.5 µL IS mixed working solution, and 150 μL methyl tertbutyl ether was added, then vortex-mixed for 1 min. The mixture was centrifuged at 12,000× g for 10 min. The organic phase was transferred to a new centrifuged tube and evaporated to dryness under a stream of nitrogen at room temperature. The dried samples were redissolved with 100 μL of 50% acetonitrile and briefly vortexed for 1 min, then 5 μL was injected into the UPLC-MS/MS for analysis.
Adult male Sprague-Dawley (SD) rats weighing 230 ± 30 g were provided by Beijing Weitong Lihua Experimental Animal Technology Co., Ltd. (Beijing, China). The license number is SCXK (Beijing) 2016–0011. All experimental procedures for this study were reviewed and approved by the Animal Ethics Committee of Hebei General Hospital (Shijiazhuang, China) (No. 2022072). The rats were adapted to the standard laboratory conditions (12 h dark–light cycle, temperature at approximately 23 ± 2 °C, relative humidity of 50 ± 10%) for a week. All the rats were given access to water freely, while the diet was prohibited for 12 h before administration.
Twenty-four healthy rats were randomly divided into four groups (n = 6 in each group). […] Blood samples were then centrifuged at 3500× g for 10 min at 4 °C, and the supernatant was transferred to another centrifuged tube, then stored in a −80 °C freezer until analysis.
DAS 2.1.1 Software (Mathematical Pharmacology Professional Committee of China, Shanghai, China) was used to calculate pharmacokinetic parameters with non-compartmental analysis. The pharmacokinetic analysis included AUC (area under the concentration–time curve), Cmax (maximum plasma concentration), Tmax (time to maximum plasma concentration), t1/2 (time required to eliminate half of plasma drug concentration), CLz/F (clearance of drug plasma volume per time unit), Vz/F (apparent volume of distribution), and MRT (mean residence time). SPSS 25.0 statistical software (SPSS Inc., Chicago, IL, USA) was used to statistically analyze the above-mentioned pharmacokinetic parameters. Statistical comparisons of the experimental and control groups were conducted using a nonparametric rank-sum test or t-test, depending on the data type; p < 0.05 was considered statistically significant.

[4] = set-up: method as in PMID 27561659; conditions: following oral administration of SOR; cited from earlier work
[5] = set-up: method as in earlier work; conditions: co-administration of neomycin; cited from earlier work
[6] = with metformin; cited from earlier work
human UGT enzymes = system: human UGT enzymes; set-up: method as in PMID 28065859; conditions: in vitro studies; cited from earlier work
[7] = Autosampler for 6 h, nominal 15 ng/mL
[8] = Autosampler for 6 h, nominal 800 ng/mL
[9] = Autosampler for 6 h, nominal 1500 ng/mL
[10] = Freeze–thaw stability for three times, nominal 15 ng/mL
[11] = Freeze–thaw stability for three times, nominal 800 ng/mL
[12] = Freeze–thaw stability for three times, nominal 1500 ng/mL
[13] = Room temperature for 4 h, nominal 15 ng/mL
[14] = Room temperature for 4 h, nominal 800 ng/mL
[15] = Room temperature for 4 h, nominal 1500 ng/mL
[16] = −80 °C for 30 days, nominal 15 ng/mL
[17] = −80 °C for 30 days, nominal 800 ng/mL
[18] = −80 °C for 30 days, nominal 1500 ng/mL
[19] = co-administered with multiple doses of SOR vs control group (DAPA alone)
[20] = male, Sprague-Dawley, rat, in vivo, po, 1 mg/kg, DAPA 1 mg/kg oral with multiple-doses SOR (100 mg/kg, seven days)
[21] = male, Sprague-Dawley, rat, in vivo, po, 1 mg/kg, DAPA 1 mg/kg oral, alone
[22] = Autosampler for 6 h, nominal 10 ng/mL
[23] = Autosampler for 6 h, nominal 3750 ng/mL
[24] = Freeze–thaw stability for three times, nominal 10 ng/mL
[25] = Freeze–thaw stability for three times, nominal 3750 ng/mL
[26] = Room temperature for 4 h, nominal 10 ng/mL
[27] = Room temperature for 4 h, nominal 3750 ng/mL
[28] = −80 °C for 30 days, nominal 10 ng/mL
[29] = −80 °C for 30 days, nominal 3750 ng/mL
[30] = male, Sprague-Dawley, rat, plasma, po, 100 mg/kg, SOR 100 mg/kg oral, alone
[31] = with multiple doses of DAPA vs control group (SOR alone)

CCOc1ccc(Cc2cc([C@@H]3O[C@H](CO)[C@@H](O)[C@H](O)[C@H]3O)ccc2Cl)cc1 [DAPA, Dapagliflozin]
effect on the expression of Ugt1a7 in the intestines (Ugt1a7 mRNA; DAPA administered to rats for seven consecutive days (1 mg/kg), intestines): no significant effect
inhibition of mRNA expression of Ugt1a7 in the liver (Ugt1a7 mRNA; DAPA administered to rats for seven consecutive days (1 mg/kg), liver): 59.31%
Accuracy (RE%) [1, 7]: −0.4%
Mean ± SD concentration found [1, 7]: 14.93 ± 0.83 ng/mL
Accuracy (RE%) [1, 8]: 3.8%
Mean ± SD concentration found [1, 8]: 830.00 ± 15.05 ng/mL
Accuracy (RE%) [1, 9]: 9.6%
Mean ± SD concentration found [1, 9]: 1643.33 ± 32.66 ng/mL
Accuracy (RE%) [1, 10]: 1.2%
Mean ± SD concentration found [1, 10]: 15.18 ± 0.87 ng/mL
Accuracy (RE%) [1, 11]: −3.8%
Mean ± SD concentration found [1, 11]: 769.83 ± 44.56 ng/mL
Accuracy (RE%) [1, 12]: −7.4%
Mean ± SD concentration found [1, 12]: 1388.33 ± 54.19 ng/mL
Accuracy (RE%) [1, 13]: −0.7%
Mean ± SD concentration found [1, 13]: 14.90 ± 0.49 ng/mL
Accuracy (RE%) [1, 14]: 11.1%
Mean ± SD concentration found [1, 14]: 889.00 ± 15.43 ng/mL
Accuracy (RE%) [1, 15]: 10.2%
Mean ± SD concentration found [1, 15]: 1653.33 ± 21.60 ng/mL
stability in rat plasma ([1]; −80 °C for 30 days): stable
Accuracy (RE%) [1, 16]: 2.9%
Mean ± SD concentration found [1, 16]: 15.43 ± 1.07 ng/mL
Accuracy (RE%) [1, 17]: 2.8%
Mean ± SD concentration found [1, 17]: 822.17 ± 21.66 ng/mL
Accuracy (RE%) [1, 18]: −1.1%
Mean ± SD concentration found [1, 18]: 1483.33 ± 19.66 ng/mL
share metabolized by CYP450 (CYP450): < 10%
increase of exposure of DAPA ([2]; with mefenamic acid (a strong UGT1A9 inhibitor)): 51%
reduction of exposure of DAPA ([2]; with rifampin (a pleiotropic enzyme inducer)): 22%
UGT1A1 inhibitor strength (UGT1A1): moderate
UGT1A9 inhibitor strength (UGT1A9): moderate
decrease of CLz/F of DAPA [3, 19]: 40%
elevation of MRT0–t of DAPA [3, 19]: 1.48 fold
elevation of MRT0–∞ of DAPA [3, 19]: 1.80 fold
elevation of Tmax of DAPA [3, 19]: 1.43 fold
increase of AUC0–t of DAPA [3, 19]: 1.66 fold
increase of AUC0–∞ of DAPA [3, 19]: 1.80 fold
AUC(0-t) ([3]; male, Sprague-Dawley, rat, in vivo, po, 1 mg/kg, AUC0-t, DAPA 1 mg/kg oral with multiple-doses SOR (100 mg/kg, seven days)): 8570 ± 2860 ng·h/mL
AUC(0-t) ([3]; male, Sprague-Dawley, rat, in vivo, po, 1 mg/kg, AUC0-t, DAPA 1 mg/kg oral, alone): 5160 ± 1030 ng·h/mL
AUC(0-inf) [3, 20]: 9300 ± 4260 ng·h/mL
AUC(0-inf) [3, 21]: 5180 ± 1050 ng·h/mL
CL/F [3, 20]: 2 mL/min/kg
CL/F [3, 21]: 3.33 mL/min/kg
Cmax ([3]; male, Sprague-Dawley, rat, in vivo, po, 1 mg/kg, Cmax, DAPA 1 mg/kg oral with multiple-doses SOR (100 mg/kg, seven days)): 871 ± 167 ng/mL
Cmax ([3]; male, Sprague-Dawley, rat, in vivo, po, 1 mg/kg, Cmax, DAPA 1 mg/kg oral, alone): 846 ± 76.4 ng/mL
MRT last [3, 20]: 9.01 ± 1.22 h
MRT last [3, 21]: 6.1 ± 0.96 h
MRT inf [3, 20]: 11.2 ± 4.86 h
MRT inf [3, 21]: 6.25 ± 1.07 h
Tmax [3, 20]: 0.83 ± 0.41 h
Tmax [3, 21]: 0.58 ± 0.2 h
Vd/F [3, 20]: 1.12 ± 0.1 L/kg
Vd/F [3, 21]: 1.27 ± 0.19 L/kg
half-life [3, 20]: 7.95 ± 4.03 h
half-life [3, 21]: 4.51 ± 0.67 h

CNC(=O)c1cc(Oc2ccc(NC(=O)Nc3ccc(Cl)c(C(F)(F)F)c3)cc2)ccn1 [SOR, Sorafenib]
downregulation of mRNA expression of Ugt1a7 in the intestines (Ugt1a7 mRNA; multiple doses of SOR (100 mg/kg, seven days), rat intestines): ~32.09%
downregulation of mRNA expression of Ugt1a7 in the liver (Ugt1a7 mRNA; multiple doses of SOR (100 mg/kg, seven days), rat liver): ~32.50%
Accuracy (RE%) [1, 22]: 0.9%
Mean ± SD concentration found [1, 22]: 10.09 ± 0.53 ng/mL
Accuracy (RE%) [1, 9]: 2.6%
Mean ± SD concentration found [1, 9]: 1538.33 ± 36.56 ng/mL
Accuracy (RE%) [1, 23]: −0.9%
Mean ± SD concentration found [1, 23]: 3716.67 ± 66.23 ng/mL
Accuracy (RE%) [1, 24]: −1.7%
Mean ± SD concentration found [1, 24]: 9.84 ± 0.34 ng/mL
Accuracy (RE%) [1, 12]: 3.3%
Mean ± SD concentration found [1, 12]: 1550.00 ± 12.65 ng/mL
Accuracy (RE%) [1, 25]: −4.0%
Mean ± SD concentration found [1, 25]: 3601.67 ± 164.00 ng/mL
Accuracy (RE%) [1, 26]: 6.8%
Mean ± SD concentration found [1, 26]: 10.68 ± 0.55 ng/mL
Accuracy (RE%) [1, 15]: −3.4%
Mean ± SD concentration found [1, 15]: 1448.33 ± 18.35 ng/mL
Accuracy (RE%) [1, 27]: −5.8%
Mean ± SD concentration found [1, 27]: 3533.33 ± 66.23 ng/mL
stability in rat plasma ([1]; −80 °C for 30 days): stable
Accuracy (RE%) [1, 28]: 2.0%
Mean ± SD concentration found [1, 28]: 10.20 ± 0.39 ng/mL
Accuracy (RE%) [1, 18]: 2.2%
Mean ± SD concentration found [1, 18]: 1533 ± 40.33 ng/mL
Accuracy (RE%) [1, 29]: −4.2%
Mean ± SD concentration found [1, 29]: 3593.33 ± 142.22 ng/mL
time at which maximum plasma concentrations are reached [4]: approximately 3 h
decrease of SOR exposure [5]: 54%
change of exposure to SOR [6]: halved
inhibition of human UGT enzymes (human UGT enzymes): one of the most powerful inhibitors
AUC(0-t) ([3]; SOR 100 mg/kg oral, alone): 62,701.33 ± 16,697.65 μg/L × h
Cmax ([3]; SOR 100 mg/kg oral, alone): 1547.87 ± 136.94 ng/mL
shape of pharmacokinetic curve of SOR ([3]; after 72 h of SOR gavage): second absorption peak
AUC(0-inf) [3, 30]: 63700 ng·h/mL
CL/F [3, 30]: 28.2 mL/min/kg
MRT last [3, 30]: 47.1 ± 9.48 h
MRT inf [3, 30]: 48.7 ± 10.5 h
Tmax [3, 30]: 7.5 ± 0.55 h
Vd/F [3, 30]: 37.4 ± 9.78 L/kg
half-life [3, 30]: 17.5 ± 5.65 h
change of t1/2z, MRT0–t and MRT0–∞ of SOR between the groups ([3]; with multiple doses of DAPA vs SOR alone): no statistically significant changes
decrease of AUC0–t of SOR [3, 31]: 50.5%
decrease of AUC0–∞ of SOR [3, 31]: 46.2%
decrease of Cmax of SOR [3, 31]: 41.6%
